Laboratory results taken from patent publication US11000033B2, “Ketone or oxime compound, and herbicide” (NISSAN CHEMICAL CORPORATION, priority 2014, dated 2021).

Columns and labels:
Assay type in all cases: in vivo
Alopecurus myosuroides = assay: Test Example 5: herbicidal effect by foliage application, plastic box (symbol J); settings: 320 g/ha, 3 weeks after application
Procedure, shortened: (§1)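 Effect is rated 3 weeks after a foliar spray of water-diluted emulsion concentrate at a predetermined herbicide amount. Plants had grown 14 days in a 25° C. to 30° C. greenhouse from seed in sterilized diluvial soil.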

[1] = tested on: directly sowed rice plant; assay: Test Example 3: effect on crop by foliage application, Wagner pot (symbol b); settings: application herbicide amount 320 g/ha
Procedure, shortened: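 Plants are raised from seed in flooded paddy conditions: water stands 0.1–0.5 cm over alluvial soil, and the pot is kept in a greenhouse at 25–30 °C. Species sown are barnyardgrass (E. crus-galli var. crus-galli), Leptochloa chinensis, Cyperus difformis and rice.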

Cyperus difformis = assay: Test Example 3: herbicidal effect by foliage application, Wagner pot (symbol E); settings: application herbicide amount 320 g/ha
Procedure, shortened: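 Alluvial soil was flooded to a depth of 0.1–0.5 cm, seeded with the weeds and rice, and kept in a greenhouse at 25–30 °C. After 14 days of growth, the foliage received a small-sprayer application of emulsion diluted to the intended rate; injury was rated at 3 weeks.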

rice = assay: Test Example 4: effect on crop by soil treatment (symbol b); settings: for b: directly sowed rice plant, effect grade on crop: 320 g/ha; for b (directly sowed rice plant) effect on crop grade: application herbicide amount 320 g/ha
Procedure, shortened: (§2)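 Seeds were sown in spots on sterilized diluvial soil in a plastic box and covered with about 1.5 cm of soil. Plants were then grown in a greenhouse at 25° C. to 30° C.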

wheat [2] = assay: Test Example 4: effect on crop by soil treatment (symbol e); settings: for e: wheat, effect grade on crop: 320 g/ha; for e (wheat) effect on crop grade: application herbicide amount 320 g/ha
Procedure, shortened: as §2

soybean = assay: Test Example 5: effect on crop by foliage application, plastic box (symbol d); settings: 320 g/ha, 3 weeks after application
Procedure, shortened: (§3)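 Crop seed is sown alongside grass and broadleaf weed species in spots in sterilized diluvial soil, then covered to a depth of about 1.5 cm. Plants grow in a greenhouse kept at 25° C. to 30° C.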

Monochoria vaginalis = assay: Test Example 2: herbicidal activity, application during weed generation in submerged conditions (symbol C); settings: Table 23; application herbicide amount 320 g/ha; grade 0-5 by criteria of Test Example 1
Procedure, shortened: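 Weeds emerging under flooded conditions were treated with compound formulated as an emulsion and diluted with water to the intended herbicide amount, poured onto the surface of 4 cm standing water. Seeds had been co-sown in alluvial soil; plants grew at 25° C. to 30° C. and were assessed after 3 weeks.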

Setaria viridis = assay: Test Example 4: herbicidal effect by soil treatment (symbol G); settings: for G: Setaria viridis, herbicidal effect grade: 320 g/ha; for G (Setaria viridis) herbicidal effect grade: application herbicide amount 320 g/ha
Procedure, shortened: (§4)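 Seeds were sown in sterilized diluvial soil, covered with about 1.5 cm of soil, and the soil surface was sprayed with a water-diluted emulsion of the compound at a predetermined rate. Plants grew in a greenhouse at 25° C. to 30° C.; effects were scored visually 3 weeks after application.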

Avena fatua = assay: Test Example 5: herbicidal effect by foliage application, plastic box (symbol I); settings: 320 g/ha, 3 weeks after application
Procedure, shortened: as §1

Amaranthus retroflexus = assay: Test Example 4: herbicidal effect by soil treatment (symbol N); settings: for N: Amaranthus retroflexus, herbicidal effect grade: 320 g/ha; for N (Amaranthus retroflexus) herbicidal effect grade: application herbicide amount 320 g/ha
Procedure, shortened: as §4

Apera spica-venti = assay: Test Example 4: herbicidal effect by soil treatment (symbol L); settings: for L: Apera spica-venti, herbicidal effect grade: 320 g/ha; for L (Apera spica-venti) herbicidal effect grade: application herbicide amount 320 g/ha
Procedure, shortened: as §4

Digitaria ciliaris = assay: Test Example 5: herbicidal effect by foliage application, plastic box (symbol F); settings: 320 g/ha, 3 weeks after application
Procedure, shortened: as §1

beet = assay: Test Example 5: effect on crop by foliage application, plastic box (symbol f); settings: 320 g/ha, 3 weeks after application
Procedure, shortened: as §3

Stellaria media = assay: Test Example 4: herbicidal effect by soil treatment (symbol P); settings: for P: Stellaria media, herbicidal effect grade: 320 g/ha; for P (Stellaria media) herbicidal effect grade: application herbicide amount 320 g/ha
Procedure, shortened: as §4

Abutilon theophrasti = assay: Test Example 4: herbicidal effect by soil treatment (symbol M); settings: for M: Abutilon theophrasti, herbicidal effect grade: 320 g/ha; for M (Abutilon theophrasti) herbicidal effect grade: application herbicide amount 320 g/ha
Procedure, shortened: as §4

wheat [3] = assay: Test Example 5: effect on crop by foliage application, plastic box (symbol e); settings: 320 g/ha, 3 weeks after application
Procedure, shortened: as §3

Compound | J: Alopecurus myosuroides, herbicidal effect (criteria 0-5) (Alopecurus myosuroides) | effect on crop b (directly sowed rice plant), grade 0-5 [1] | herbicidal effect on E, grade 0-5 (Cyperus difformis) | b: directly sowed rice plant, effect grade on crop (rice) | e: wheat, effect grade on crop (wheat [2]) | d: soybean, effect on crop (criteria 0-5) (soybean) | Herbicidal effect grade, C: Monochoria vaginalis (Monochoria vaginalis) | J: Alopecurus myosuroides, herbicidal effect grade (Alopecurus myosuroides) | b (directly sowed rice plant) effect on crop grade (rice) | e (wheat) effect on crop grade (wheat [2]) | d: soybean, effect on crop grade (soybean) | G (Setaria viridis) herbicidal effect grade (Setaria viridis) | I: Avena fatua, herbicidal effect grade (Avena fatua) | N (Amaranthus retroflexus) herbicidal effect grade (Amaranthus retroflexus) | L (Apera spica-venti) herbicidal effect grade (Apera spica-venti) | F: Digitaria ciliaris, herbicidal effect grade (Digitaria ciliaris) | f: beet, effect on crop grade (beet) | P (Stellaria media) herbicidal effect grade (Stellaria media) | M (Abutilon theophrasti) herbicidal effect grade (Abutilon theophrasti) | e: wheat, effect on crop grade (wheat [3]) | further results
CON=C(C)CC1CC(OC(=O)COc2ccc(C=O)cc2)=C(c2c(C)cc(C)cc2C)C1=O (centres unmarked) [1-079] | 5 (Herbicidal ratio of 90% or more (almost completely withered)) | 5 (Herbicidal ratio of 90% or more (almost completely withered)) | 5 (Herbicidal ratio of 90% or more (almost completely withered)) | 5 (Herbicidal ratio of 90% or more (almost completely withered)) | 4 (Herbicidal ratio of 70% or higher and lower than 90%) | 4 (Herbicidal ratio of 70% or higher and lower than 90%) | 3 (Herbicidal ratio of 40% or higher and lower than 70%) |  |  |  |  |  |  |  |  |  |  |  |  |  | G: Setaria viridis, herbicidal effect grade (Setaria viridis): 5 (Herbicidal ratio of 90% or more (almost completely withered)); I: Avena fatua, herbicidal effect (criteria 0-5) (Avena fatua): 5 (Herbicidal ratio of 90% or more (almost completely withered)); N: Amaranthus retroflexus, herbicidal effect grade (Amaranthus retroflexus): 4 (Herbicidal ratio of 70% or higher and lower than 90%); L: Apera spica-venti, herbicidal effect grade (Apera spica-venti): 5 (Herbicidal ratio of 90% or more (almost completely withered)); F: Digitaria ciliaris, herbicidal effect (criteria 0-5) (Digitaria ciliaris): 5 (Herbicidal ratio of 90% or more (almost completely withered)); f: beet, effect on crop (criteria 0-5) (beet): 0 (Herbicidal ratio of 5% or lower (almost no effect)); P: Stellaria media, herbicidal effect grade (Stellaria media): 0 (Herbicidal ratio of 5% or lower (almost no effect)); M: Abutilon theophrasti, herbicidal effect grade (Abutilon theophrasti): 5 (Herbicidal ratio of 90% or more (almost completely withered)); e: wheat, effect on crop (criteria 0-5) (wheat [3]): 4 (Herbicidal ratio of 70% or higher and lower than 90%)
CON=C(C)CC1CC(O)=C(c2c(C)cc(C)cc2C)C1=O (centres unmarked) [1-002, 3-hydroxy-2-mesityl-5-{2-(methoxyimino)propyl}cyclopent-2-enone] |  | 5 (Herbicidal ratio of 90% or more (almost completely withered)) | 5 (Herbicidal ratio of 90% or more (almost completely withered)) |  |  |  | 3 (Herbicidal ratio of 40% or higher and lower than 70%) | 5 (Herbicidal ratio of 90% or more (almost completely withered)) | 5 (Herbicidal ratio of 90% or more (almost completely withered)) | 4 (Herbicidal ratio of 70% or higher and lower than 90%) | 4 (Herbicidal ratio of 70% or higher and lower than 90%) | 3 (Herbicidal ratio of 40% or higher and lower than 70%) | 5 (Herbicidal ratio of 90% or more (almost completely withered)) | 5 (Herbicidal ratio of 90% or more (almost completely withered)) | 5 (Herbicidal ratio of 90% or more (almost completely withered)) | 5 (Herbicidal ratio of 90% or more (almost completely withered)) | 5 (Herbicidal ratio of 90% or more (almost completely withered)) | 3 (Herbicidal ratio of 40% or higher and lower than 70%) | 5 (Herbicidal ratio of 90% or more (almost completely withered)) | 5 (Herbicidal ratio of 90% or more (almost completely withered)) | 
CC(CC1CC(O)=C(c2c(C)cc(C)cc2C)C1=O)=NOC(C)C (centres unmarked) [1-052] |  | 5 (Herbicidal ratio of 90% or more (almost completely withered)) | 5 (Herbicidal ratio of 90% or more (almost completely withered)) |  |  |  | 0 (Herbicidal ratio of 5% or lower (almost no effect)) | 5 (Herbicidal ratio of 90% or more (almost completely withered)) | 5 (Herbicidal ratio of 90% or more (almost completely withered)) | 5 (Herbicidal ratio of 90% or more (almost completely withered)) | 4 (Herbicidal ratio of 70% or higher and lower than 90%) | 5 (Herbicidal ratio of 90% or more (almost completely withered)) | 5 (Herbicidal ratio of 90% or more (almost completely withered)) | 3 (Herbicidal ratio of 40% or higher and lower than 70%) | 5 (Herbicidal ratio of 90% or more (almost completely withered)) | 5 (Herbicidal ratio of 90% or more (almost completely withered)) | 0 (Herbicidal ratio of 5% or lower (almost no effect)) | 0 (Herbicidal ratio of 5% or lower (almost no effect)) | 4 (Herbicidal ratio of 70% or higher and lower than 90%) | 5 (Herbicidal ratio of 90% or more (almost completely withered)) | 
CON=CCC1CC(O)=C(c2c(C)cc(C)cc2C)C1=O (centres unmarked) [1-050] |  | 5 (Herbicidal ratio of 90% or more (almost completely withered)) | 5 (Herbicidal ratio of 90% or more (almost completely withered)) |  |  |  | 0 (Herbicidal ratio of 5% or lower (almost no effect)) | 4 (Herbicidal ratio of 70% or higher and lower than 90%) | 5 (Herbicidal ratio of 90% or more (almost completely withered)) | 0 (Herbicidal ratio of 5% or lower (almost no effect)) | 0 (Herbicidal ratio of 5% or lower (almost no effect)) | 4 (Herbicidal ratio of 70% or higher and lower than 90%) | 3 (Herbicidal ratio of 40% or higher and lower than 70%) | 0 (Herbicidal ratio of 5% or lower (almost no effect)) | 0 (Herbicidal ratio of 5% or lower (almost no effect)) | 3 (Herbicidal ratio of 40% or higher and lower than 70%) | 0 (Herbicidal ratio of 5% or lower (almost no effect)) | 0 (Herbicidal ratio of 5% or lower (almost no effect)) | 1 (Herbicidal ratio of 5% or higher and lower than 20%) | 0 (Herbicidal ratio of 5% or lower (almost no effect)) | 
CCCC=CC(=O)OC1=C(c2c(C)cc(C)cc2C)C(=O)C(CC(C)=NOC)C1 (centres unmarked) [1-090] | 5 (Herbicidal ratio of 90% or more (almost completely withered)) | 5 (Herbicidal ratio of 90% or more (almost completely withered)) | 5 (Herbicidal ratio of 90% or more (almost completely withered)) | 5 (Herbicidal ratio of 90% or more (almost completely withered)) | 4 (Herbicidal ratio of 70% or higher and lower than 90%) | 3 (Herbicidal ratio of 40% or higher and lower than 70%) | 3 (Herbicidal ratio of 40% or higher and lower than 70%) |  |  |  |  |  |  |  |  |  |  |  |  |  | G: Setaria viridis, herbicidal effect grade (Setaria viridis): 5 (Herbicidal ratio of 90% or more (almost completely withered)); I: Avena fatua, herbicidal effect (criteria 0-5) (Avena fatua): 5 (Herbicidal ratio of 90% or more (almost completely withered)); N: Amaranthus retroflexus, herbicidal effect grade (Amaranthus retroflexus): 0 (Herbicidal ratio of 5% or lower (almost no effect)); L: Apera spica-venti, herbicidal effect grade (Apera spica-venti): 5 (Herbicidal ratio of 90% or more (almost completely withered)); F: Digitaria ciliaris, herbicidal effect (criteria 0-5) (Digitaria ciliaris): 5 (Herbicidal ratio of 90% or more (almost completely withered)); f: beet, effect on crop (criteria 0-5) (beet): 0 (Herbicidal ratio of 5% or lower (almost no effect)); P: Stellaria media, herbicidal effect grade (Stellaria media): 0 (Herbicidal ratio of 5% or lower (almost no effect)); M: Abutilon theophrasti, herbicidal effect grade (Abutilon theophrasti): 4 (Herbicidal ratio of 70% or higher and lower than 90%); e: wheat, effect on crop (criteria 0-5) (wheat [3]): 5 (Herbicidal ratio of 90% or more (almost completely withered))
